Reference: article PMC5912893 (Journal of medicinal chemistry, 2018)
pIC50: −log10 of the molar value.

Assays:
[1] = target: purified tubulin (Sus scrofa, UniProt P02550+P02554); assay: Cell-free microtubule polymerization assay; format: biochemical, porcine; settings: tubulin 3.33 mg/mL, absorbance 340 nm, 37 °C, 50 min
[2] = tested on: WM164 melanoma cells; assay: Confocal immunofluorescent microscopy of microtubule networks; format: cell-based, human; settings: 100 nM, 18 h
[3] = tested on: A375 xenograft; assay: A375 melanoma xenograft model in nude mice; format: in vivo; settings: for apoptosis in tumors (cleaved caspase 3 IHC): IHC staining
[4] = tested on: PC-3/TxR xenograft; assay: Paclitaxel resistant PC-3/TxR prostate cancer xenograft model in nude mice; format: in vivo; settings: for effect on tumor growth (in words): vs vehicle
[5] = tested on: A375, M14, and RPMI7951; assay: Cytotoxic activity against three human malignant melanoma cell lines; settings: read-out: IC50 (approximate, three melanoma cell lines)
[6] = tested on: RPMI7951; assay: Wound healing assay, RPMI7951 cells; format: cell-based, human; settings: 18 h, untreated control 71.8%
[7] = tested on: PC-3 xenograft; settings: nude mice

Sequence of purified tubulin (P02554 whole entry): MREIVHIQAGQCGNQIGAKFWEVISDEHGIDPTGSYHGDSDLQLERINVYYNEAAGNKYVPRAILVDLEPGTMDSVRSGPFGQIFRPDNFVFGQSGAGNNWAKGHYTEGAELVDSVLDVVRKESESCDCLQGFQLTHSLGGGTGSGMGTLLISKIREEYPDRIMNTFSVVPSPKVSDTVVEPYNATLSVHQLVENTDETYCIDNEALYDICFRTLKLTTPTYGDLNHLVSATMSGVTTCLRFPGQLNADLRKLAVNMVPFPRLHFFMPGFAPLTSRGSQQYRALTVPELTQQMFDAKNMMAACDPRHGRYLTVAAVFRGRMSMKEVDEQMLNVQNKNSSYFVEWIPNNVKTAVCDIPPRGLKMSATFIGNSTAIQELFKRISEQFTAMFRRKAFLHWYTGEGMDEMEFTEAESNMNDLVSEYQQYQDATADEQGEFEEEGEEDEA
Sequence of purified tubulin (P02550 whole entry): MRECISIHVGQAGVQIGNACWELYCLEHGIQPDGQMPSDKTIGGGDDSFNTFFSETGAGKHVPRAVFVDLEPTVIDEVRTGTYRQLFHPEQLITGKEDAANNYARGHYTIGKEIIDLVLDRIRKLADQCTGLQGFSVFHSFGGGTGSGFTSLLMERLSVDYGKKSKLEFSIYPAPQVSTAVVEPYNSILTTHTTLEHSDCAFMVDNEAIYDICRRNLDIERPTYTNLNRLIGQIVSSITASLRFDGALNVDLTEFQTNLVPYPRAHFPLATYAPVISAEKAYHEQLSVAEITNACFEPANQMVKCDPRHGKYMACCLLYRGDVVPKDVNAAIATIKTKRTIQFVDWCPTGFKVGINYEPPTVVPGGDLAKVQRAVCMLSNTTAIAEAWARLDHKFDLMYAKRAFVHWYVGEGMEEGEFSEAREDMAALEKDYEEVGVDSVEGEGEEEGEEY

Compound: COc1ccc2c(c1)CCCN2c1nc(Cl)nc2ncccc12 [4a, 2-Chloro-4-(6-methoxy-3,4-dihydroquinolin-1(2H)-yl)pyrido-[2,3-d]pyrimidine]
- effect on tubulin polymerization [1]: effectively inhibited tubulin polymerization in a dose-dependent manner
- effect on microtubule networks [2]: causes fragmentation of the microtubules, decreases polymeric tubulin filaments, and increases cytoplasmic soluble tubulin
- microvessel density in tumors (CD31 staining) [3]: less microvessel density
- apoptosis in tumors (cleaved caspase 3 IHC) [3]: increase in the number of cells undergoing apoptosis
- effect on tumor growth (in words) [4]: significant decrease in tumor volume
- pIC50 [5]: ~8.22

Compound: COc1ccc2c(c1)CCCN2c1nc(Cl)nc2ccoc12 [6a, 2-Chloro-4-(6-methoxy-3,4-dihydroquinolin-1(2H)-yl)furo[3,2-d]pyrimidine]
- effect on tubulin polymerization [1]: effectively inhibited tubulin polymerization in a dose-dependent manner
- microvessel density in tumors (CD31 staining) [3]: less microvessel density
- apoptosis in tumors (cleaved caspase 3 IHC) [3]: increase in the number of cells undergoing apoptosis
- pIC50 [5]: ~8.52

Compound: COc1ccc(N(C)c2nc(Cl)nc3ncccc23)cc1OC [21a, 2-Chloro-N-(3,4-dimethoxyphenyl)-N-methylpyrido[2,3-d]-pyrimidin-4-amine]
- pIC50 [5]: 7.35

Compound: COc1cc2c(c(OC)c1OC)-c1ccc(OC)c(=O)cc1[C@@H](NC(C)=O)CC2 [colchicine]
- wound closure, RPMI7951, 5 nM [6]: a significant decrease in migration was not observed

Compound: COc1ccc2c(c1)C(O)CCN2c1nc(Cl)nc2ncccc12 (stereo not drawn) [compound 17, 1-(2-Chloropyrido[2,3-d]pyrimidin-4-yl)-6-methoxy-1,2,3,4-tetrahydroquinolin-4-ol]
- pIC50 [5]: ~7.52

Compound: COc1ccc2c(c1)OCCN2c1nc(Cl)nc2ncccc12 [compound 19, 4-(2-Chloropyrido[2,3-d]pyrimidin-4-yl)-7-methoxy-3,4-dihydro-2H-benzo[b][1,4]oxazine]
- pIC50 [5]: 6.53

Compound: CC(=O)O[C@@]12CO[C@@H]1C[C@H](O)[C@@]1(C)C(=O)[C@H](O)C3=C(C)[C@@H](OC(=O)[C@H](O)[C@@H](NC(=O)OC(C)(C)C)c4ccccc4)C[C@@](O)([C@@H](OC(=O)c4ccccc4)[C@H]21)C3(C)C [docetaxel, reference compound]
- effect on microtubule networks [2]: dense tubulin accretion, representative of aggressive polymerization

Compound: CC(=O)O[C@H]1C(=O)[C@@]2(C)[C@H]([C@H](OC(=O)c3ccccc3)[C@]3(O)C[C@H](OC(=O)[C@H](O)[C@@H](NC(=O)c4ccccc4)c4ccccc4)C(C)=C1C3(C)C)[C@]1(OC(C)=O)CO[C@@H]1C[C@@H]2O [paclitaxel, reference compound]
- effect on tubulin polymerization [1]: greatest polymerization
- microvessel density in tumors (CD31 staining) [3]: less microvessel density
- apoptosis in tumors (cleaved caspase 3 IHC) [3]: increase in the number of cells undergoing apoptosis
- mouse body weight [4]: began to drop considerably after 2 weeks of treatment
- effect on tumor growth (in words) [4]: no difference in tumor growth
- susceptibility of nonresistant tumors to treatment [7]: highly susceptible
